Experimental data reported in ChEMBL document CHEMBL4610123, “Structure-Based Drug Discovery of N-((R)-3-(7-Methyl-1H-indazol-5-yl)-1-oxo-1-(((S)-1-oxo-3-(piperidin-4-yl)-1-(4-(pyridin-4-yl)piperazin-1-yl)propan-2-yl)amino)propan-2-yl)-2'-oxo-1',2'-dihydrospiro[piperidine-4,4'-pyrido[2,3-d][1,3]oxazine]-1-carboxamide (HTL22562): A Calcitonin Gene-Related …” (J Med Chem, 2020).
≈ marks a conversion by molar mass, not a printed value.

Experiments:
[1] = Apparent permeability across apical to basolateral side in MDCK cells; format: ADME, cell-based, Canis lupus familiaris; conditions: dog
Macaca fascicularis = species: Macaca fascicularis; assay: Antagonist activity at cynomolgus monkey CGRP receptor
[2] = target: T1, Mas-related G-protein coupled receptor member X2 (Homo sapiens, UniProt Q96LB1); assay: Agonist activity at MRGPX2 (unknown origin)
T1 sequence (Q96LB1 whole entry): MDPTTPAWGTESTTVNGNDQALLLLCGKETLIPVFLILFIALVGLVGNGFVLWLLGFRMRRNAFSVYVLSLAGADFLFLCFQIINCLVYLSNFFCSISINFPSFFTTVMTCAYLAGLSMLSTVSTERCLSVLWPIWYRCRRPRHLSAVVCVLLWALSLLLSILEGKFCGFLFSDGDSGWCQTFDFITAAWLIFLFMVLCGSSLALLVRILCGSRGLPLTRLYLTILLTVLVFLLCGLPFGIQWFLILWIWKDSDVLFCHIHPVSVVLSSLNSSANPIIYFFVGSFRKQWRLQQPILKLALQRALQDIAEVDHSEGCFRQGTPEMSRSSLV

[3] = Stability of the compound in pH 8 solution at 50 degC assessed as loss of purity after 1 week; format: physicochemical; conditions: read-out: Drug degradation
Homo sapiens = species: Homo sapiens; assay: Selectivity ratio of antagonist activity at adrenomedullin-1 receptor (unknown origin) to antagonist activity at human CGRP receptor in human SK-N-MC cells; format: cell-based
[4] = Tmax in cynomolgus monkey at 0.5 mg/kg, sc; format: ADME, organism-based, Macaca fascicularis; conditions: in vivo
[5] = Protein binding in cynomolgus monkey plasma by high-throughput dialysis method; format: ADME, cell-free, Macaca fascicularis; conditions: read-out: PPB (converted)
[6] = Solubility of the compound at pH 4 using amorphous form of sample; format: physicochemical; conditions: buffer
[7] = AUC (infinity) in rat at 1 mg/kg, sc; format: ADME, organism-based; parameters: dose 1 mg/kg, route subcutaneous, time infinity; conditions: in vivo
hERG (KCNH2) = hERG (KCNH2) (Homo sapiens, UniProt Q12809); assay: Inhibition of human ERG at 300 uM relative to control
[8] = target: Calcitonin-gene-related peptide receptor, CALCRL/RAMP1 (Homo sapiens, UniProt O60894+Q16602); assay: Antagonist activity at human CGRP receptor in human SK-N-MC cells assessed as inhibition of CGRP-induced cAMP production preincubated for 30 mins followed by CGRP addition and measured after 30 mins by HTRF assay; format: functional, cell-based
[9] = Stability of the compound in pH 3 solution at 50 degC assessed as loss of purity after 1 week; format: physicochemical; conditions: read-out: Drug degradation
[10] = Half life in cynomolgus monkey at 0.5 mg/kg, iv; format: ADME, organism-based, Macaca fascicularis; conditions: in vivo
[11] = test system: CALCRL/RAMP2 (adrenomedullin AM1 receptor) (Homo sapiens); assay: Antagonist activity at human adrenomedullin-1 receptor
[12] = Toxicity in rat assessed as behavioral changes at 0.1 to 1 mg/kg/day, sc administered for 10 days; format: organism-based; conditions: in vivo, 240 h
[13] = Solubility of the compound at pH 8.2 using amorphous form of sample; format: physicochemical; conditions: buffer
[14] = target: T2, AHR (aryl hydrocarbon receptor) (Homo sapiens, UniProt P35869); assay: Transactivation of AHR (unknown origin) assessed as induction of CYP450 at 3 uM relative to control; format: ADME; conditions: read-out: FC
T2 sequence (P35869 whole entry): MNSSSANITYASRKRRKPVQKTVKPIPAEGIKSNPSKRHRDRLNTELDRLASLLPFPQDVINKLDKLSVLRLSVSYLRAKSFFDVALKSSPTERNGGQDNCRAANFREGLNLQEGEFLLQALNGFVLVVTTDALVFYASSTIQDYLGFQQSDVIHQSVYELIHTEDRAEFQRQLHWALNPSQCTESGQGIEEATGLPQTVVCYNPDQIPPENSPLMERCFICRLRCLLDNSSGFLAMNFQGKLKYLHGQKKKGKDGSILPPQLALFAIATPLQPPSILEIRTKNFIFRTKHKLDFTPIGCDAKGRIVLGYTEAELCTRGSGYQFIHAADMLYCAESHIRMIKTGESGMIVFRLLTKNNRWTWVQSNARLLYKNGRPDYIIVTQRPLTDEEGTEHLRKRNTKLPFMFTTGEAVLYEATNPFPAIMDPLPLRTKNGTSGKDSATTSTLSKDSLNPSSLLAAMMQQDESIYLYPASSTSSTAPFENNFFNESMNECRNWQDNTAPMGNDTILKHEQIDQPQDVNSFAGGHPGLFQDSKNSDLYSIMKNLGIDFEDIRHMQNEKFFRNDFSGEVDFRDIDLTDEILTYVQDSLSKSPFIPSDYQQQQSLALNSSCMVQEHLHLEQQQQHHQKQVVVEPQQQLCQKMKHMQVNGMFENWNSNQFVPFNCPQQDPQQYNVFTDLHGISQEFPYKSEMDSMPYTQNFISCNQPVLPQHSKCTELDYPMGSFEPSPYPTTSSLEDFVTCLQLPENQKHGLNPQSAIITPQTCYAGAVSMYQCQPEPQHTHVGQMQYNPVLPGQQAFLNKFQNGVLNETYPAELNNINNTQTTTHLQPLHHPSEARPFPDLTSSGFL

[15] = Genotoxicity in Salmonella typhimurium TA1537 by mini AMES test; format: toxicity; conditions: salmonella enterica subsp. enterica serovar typhimurium
[16] = target: T3, Mas-related G-protein coupled receptor member X2 (Homo sapiens) (UniProt Q96LB1); assay: Agonist activity at MRGPX2 (unknown origin) at 10 uM relative to control
T3 sequence (whole entry): T1 sequence (Q96LB1 whole entry)

[17] = Half life in cynomolgus monkey hepatocytes; format: ADME, cell-based, Macaca fascicularis, Hepatocyte
Cytochrome P450 2C19 = Cytochrome P450 2C19 (Homo sapiens, UniProt P33261); assay: Inhibition of CYP2C19 (unknown origin); format: ADME
[18] = Clearance in cynomolgus monkey at 0.5 mg/kg, iv; format: ADME, organism-based, Macaca fascicularis; conditions: in vivo
Cytochrome P450 1A2 = target: T4, Cytochrome P450 1A2 (Homo sapiens, UniProt P05177); assay: Inhibition of CYP1A2 (unknown origin); format: ADME
T4 sequence (P05177 whole entry): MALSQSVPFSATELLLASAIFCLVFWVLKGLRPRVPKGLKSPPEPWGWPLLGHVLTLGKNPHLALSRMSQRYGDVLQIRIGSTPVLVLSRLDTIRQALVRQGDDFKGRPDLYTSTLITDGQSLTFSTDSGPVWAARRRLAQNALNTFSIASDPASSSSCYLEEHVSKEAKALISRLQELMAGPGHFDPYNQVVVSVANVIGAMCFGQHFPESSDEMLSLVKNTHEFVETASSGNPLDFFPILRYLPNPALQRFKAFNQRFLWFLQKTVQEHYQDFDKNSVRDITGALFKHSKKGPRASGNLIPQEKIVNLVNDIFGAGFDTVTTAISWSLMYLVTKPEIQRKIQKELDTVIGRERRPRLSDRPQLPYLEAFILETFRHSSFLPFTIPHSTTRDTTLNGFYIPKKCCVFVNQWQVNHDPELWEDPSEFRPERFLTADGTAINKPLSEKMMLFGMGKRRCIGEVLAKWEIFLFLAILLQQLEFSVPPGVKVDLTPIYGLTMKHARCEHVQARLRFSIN

[19] = Volume of distribution at steady state in cynomolgus monkey at 0.5 mg/kg, iv; format: ADME, organism-based, Macaca fascicularis; conditions: in vivo, read-out: Vdss

Chain of hERG (KCNH2) (Q12809 whole entry): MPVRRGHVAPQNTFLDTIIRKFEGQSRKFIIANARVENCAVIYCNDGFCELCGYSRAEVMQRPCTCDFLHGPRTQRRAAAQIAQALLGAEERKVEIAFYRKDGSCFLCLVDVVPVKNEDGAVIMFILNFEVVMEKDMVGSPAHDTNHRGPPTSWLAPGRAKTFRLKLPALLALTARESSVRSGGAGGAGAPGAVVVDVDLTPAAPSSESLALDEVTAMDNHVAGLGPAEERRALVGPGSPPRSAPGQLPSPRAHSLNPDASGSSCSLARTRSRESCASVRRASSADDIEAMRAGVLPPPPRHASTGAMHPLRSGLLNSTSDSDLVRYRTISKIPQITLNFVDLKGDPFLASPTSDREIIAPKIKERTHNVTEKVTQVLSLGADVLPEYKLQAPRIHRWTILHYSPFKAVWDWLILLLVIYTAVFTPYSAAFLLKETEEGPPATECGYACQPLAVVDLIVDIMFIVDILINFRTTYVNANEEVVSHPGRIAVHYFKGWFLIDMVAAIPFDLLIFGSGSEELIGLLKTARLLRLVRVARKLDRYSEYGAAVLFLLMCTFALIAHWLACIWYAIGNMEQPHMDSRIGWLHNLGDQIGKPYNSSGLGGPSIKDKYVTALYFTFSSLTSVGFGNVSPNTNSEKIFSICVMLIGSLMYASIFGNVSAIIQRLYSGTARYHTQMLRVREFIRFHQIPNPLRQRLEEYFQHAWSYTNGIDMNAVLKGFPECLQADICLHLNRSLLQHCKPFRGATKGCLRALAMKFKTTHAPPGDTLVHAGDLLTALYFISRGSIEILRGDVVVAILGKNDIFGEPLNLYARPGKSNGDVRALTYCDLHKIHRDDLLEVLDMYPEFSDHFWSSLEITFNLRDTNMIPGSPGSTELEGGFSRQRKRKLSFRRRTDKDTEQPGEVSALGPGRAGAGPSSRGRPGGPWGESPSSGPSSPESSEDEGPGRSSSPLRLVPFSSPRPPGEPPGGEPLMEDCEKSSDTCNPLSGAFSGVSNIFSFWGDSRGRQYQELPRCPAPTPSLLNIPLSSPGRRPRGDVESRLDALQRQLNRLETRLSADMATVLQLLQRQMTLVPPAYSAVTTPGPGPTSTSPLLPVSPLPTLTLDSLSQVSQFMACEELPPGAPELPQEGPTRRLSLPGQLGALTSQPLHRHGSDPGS
Chain of Cytochrome P450 2C19 (P33261 whole entry): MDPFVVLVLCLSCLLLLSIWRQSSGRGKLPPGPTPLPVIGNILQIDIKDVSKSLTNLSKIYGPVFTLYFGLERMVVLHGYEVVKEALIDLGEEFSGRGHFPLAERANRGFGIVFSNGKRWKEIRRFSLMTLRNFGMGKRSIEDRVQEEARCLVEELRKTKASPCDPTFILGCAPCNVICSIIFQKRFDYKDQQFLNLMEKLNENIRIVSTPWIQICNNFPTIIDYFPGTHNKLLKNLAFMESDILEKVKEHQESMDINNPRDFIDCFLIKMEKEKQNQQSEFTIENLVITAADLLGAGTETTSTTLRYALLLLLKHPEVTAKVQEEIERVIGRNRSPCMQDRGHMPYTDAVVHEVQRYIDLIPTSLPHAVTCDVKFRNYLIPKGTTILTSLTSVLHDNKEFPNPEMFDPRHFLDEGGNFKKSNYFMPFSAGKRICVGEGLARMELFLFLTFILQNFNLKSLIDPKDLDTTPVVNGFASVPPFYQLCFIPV

In the case of `Cc1cc(C[C@@H](NC(=O)N2CCC3(CC2)OC(=O)Nc2ncccc23)C(=O)N[C@@H](CC2CCNCC2)C(=O)N2CCN(c3ccncc3)CC2)cc2cn[nH]c12` [HTL-0022562], the Papp A→B [1] is reported as 0.8 ×10⁻⁶ cm/s, the pKb (Macaca fascicularis) is reported as 10.5 and the EC50 [2] is reported as 0.9 µM. It also gave a degraded at 168 h [3] of 4.5%, a Selectivity ratio (Homo sapiens) greater than 8000 and a Tmax [4] of 0.8 h. The fraction unbound [5] was 0.69, the solubility [6] was 174 mg/mL (≈ 228 mM) and the AUC(0-inf) [7] was 1280 ng·h/mL. For the same molecule, the inhibition at 300 µM (hERG (KCNH2)) was 6%, the pKb [8] was 10.2 and the degraded at 168 h [9] was 0.4%. For the same molecule, the half-life [10] was 5.3 h, the pKb [11] was less than 5.7 and the Activity [12] was “Non-Toxic”. The solubility [13] was 9 mg/mL (≈ 11.8 mM), the fold induction at 3 µM [14] was 1.4 and the Activity [15] was “Non-Toxic”. For the same molecule, the Activity [16] was 80%, the half-life [17] was greater than 5 h and the IC50 (Cytochrome P450 2C19) was greater than 50.1 µM. For the same molecule, the clearance [18] was 2 mL/min/kg, the IC50 (Cytochrome P450 1A2) was greater than 50.1 µM and the Vd [19] was 0.4 L/kg.
